Assay results reported in patent US9453026B2, “ACC inhibitors and uses thereof” (Gilead Apollo, Inc., priority 2011, dated 2016).
pIC50: −log10 of the molar value.

Assays:
ACC2 = ACC2 (Homo sapiens, UniProt O00763); experiment: In vitro ACC2 inhibition assay (ADP-Glo); type: biochemical; conditions: read-out: ACC2
In short: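 Enzyme (human ACC1 or ACC2) and compound, serially diluted 1:3 over 11 points from a 600 uM DMSO stock, were preincubated 15 min before substrate addition.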

ACC1 = ACC1 (Homo sapiens, UniProt Q13085); experiment: In vitro ACC1 inhibition assay (ADP-Glo); type: biochemical; conditions: read-out: ACC1
Experimental: An exemplary procedure for the in vitro ACC inhibition assay, which can be used to determine the inhibitory action of compounds of the invention toward either ACC1 or ACC2, follows. The ADP-Glo™ Kinase Assay kit from Promega was used. The ADP-Glo™ Kinase Assay is a luminescent ADP detection assay to measure enzymatic activity by quantifying the amount of ADP produced during an enzyme reaction. The assay is performed in two steps; first, after the enzyme reaction, an equal volume of ADP-Glo™ Reagent is added to terminate the reaction and deplete the remaining ATP. Second, the Kinase Detection Reagent is added to simultaneously convert ADP to ATP and allow the newly synthesized ATP to be measured using a luciferase/luciferin reaction. Luminescence can be correlated to ADP concentrations by using an ATP-to-ADP conversion curve. The detailed procedure is as follows. 50 μL of the compound being tested (600 uM in DMSO) was added to a 384-well dilution plate. The compound was diluted 1:3 in succession in DMSO for each row for 11 wells. 0.5 μL ACC2 working solution was added to 384-well white Optiplate assay plate. 0.5 μL diluted compound solution in each column from step 2 to assay plate, each row containing 2 replicates. […] The plates were incubated at room temperature for 15 minutes. 5 μL substrate working solution was added to each well to initiate reaction. […] Plates were incubated at room temperature for 60 minutes. 10 μL ADP glo reagent was added. Plates were incubated at room temperature for 40 minutes. 20 μL kinase detection reagent was added.
Data for each concentration, as well as the positive and negative controls were averaged, and the standard deviation calculated. Percent inhibition was calculated by the formula: 100× (average negative control−compound)/(average negative control−average positive control). The IC50 for each compound was calculated by fitting the data with a non-linear regression equation: Y=Bottom+(Top-Bottom)/(1+10^((Log IC50−X)*HillSlope)), where X is the log of compound concentration and Y is percent inhibition.
The compound numbers correspond to the compound numbers in Table 1.

Chain of ACC2 (O00763 whole entry, species assumed): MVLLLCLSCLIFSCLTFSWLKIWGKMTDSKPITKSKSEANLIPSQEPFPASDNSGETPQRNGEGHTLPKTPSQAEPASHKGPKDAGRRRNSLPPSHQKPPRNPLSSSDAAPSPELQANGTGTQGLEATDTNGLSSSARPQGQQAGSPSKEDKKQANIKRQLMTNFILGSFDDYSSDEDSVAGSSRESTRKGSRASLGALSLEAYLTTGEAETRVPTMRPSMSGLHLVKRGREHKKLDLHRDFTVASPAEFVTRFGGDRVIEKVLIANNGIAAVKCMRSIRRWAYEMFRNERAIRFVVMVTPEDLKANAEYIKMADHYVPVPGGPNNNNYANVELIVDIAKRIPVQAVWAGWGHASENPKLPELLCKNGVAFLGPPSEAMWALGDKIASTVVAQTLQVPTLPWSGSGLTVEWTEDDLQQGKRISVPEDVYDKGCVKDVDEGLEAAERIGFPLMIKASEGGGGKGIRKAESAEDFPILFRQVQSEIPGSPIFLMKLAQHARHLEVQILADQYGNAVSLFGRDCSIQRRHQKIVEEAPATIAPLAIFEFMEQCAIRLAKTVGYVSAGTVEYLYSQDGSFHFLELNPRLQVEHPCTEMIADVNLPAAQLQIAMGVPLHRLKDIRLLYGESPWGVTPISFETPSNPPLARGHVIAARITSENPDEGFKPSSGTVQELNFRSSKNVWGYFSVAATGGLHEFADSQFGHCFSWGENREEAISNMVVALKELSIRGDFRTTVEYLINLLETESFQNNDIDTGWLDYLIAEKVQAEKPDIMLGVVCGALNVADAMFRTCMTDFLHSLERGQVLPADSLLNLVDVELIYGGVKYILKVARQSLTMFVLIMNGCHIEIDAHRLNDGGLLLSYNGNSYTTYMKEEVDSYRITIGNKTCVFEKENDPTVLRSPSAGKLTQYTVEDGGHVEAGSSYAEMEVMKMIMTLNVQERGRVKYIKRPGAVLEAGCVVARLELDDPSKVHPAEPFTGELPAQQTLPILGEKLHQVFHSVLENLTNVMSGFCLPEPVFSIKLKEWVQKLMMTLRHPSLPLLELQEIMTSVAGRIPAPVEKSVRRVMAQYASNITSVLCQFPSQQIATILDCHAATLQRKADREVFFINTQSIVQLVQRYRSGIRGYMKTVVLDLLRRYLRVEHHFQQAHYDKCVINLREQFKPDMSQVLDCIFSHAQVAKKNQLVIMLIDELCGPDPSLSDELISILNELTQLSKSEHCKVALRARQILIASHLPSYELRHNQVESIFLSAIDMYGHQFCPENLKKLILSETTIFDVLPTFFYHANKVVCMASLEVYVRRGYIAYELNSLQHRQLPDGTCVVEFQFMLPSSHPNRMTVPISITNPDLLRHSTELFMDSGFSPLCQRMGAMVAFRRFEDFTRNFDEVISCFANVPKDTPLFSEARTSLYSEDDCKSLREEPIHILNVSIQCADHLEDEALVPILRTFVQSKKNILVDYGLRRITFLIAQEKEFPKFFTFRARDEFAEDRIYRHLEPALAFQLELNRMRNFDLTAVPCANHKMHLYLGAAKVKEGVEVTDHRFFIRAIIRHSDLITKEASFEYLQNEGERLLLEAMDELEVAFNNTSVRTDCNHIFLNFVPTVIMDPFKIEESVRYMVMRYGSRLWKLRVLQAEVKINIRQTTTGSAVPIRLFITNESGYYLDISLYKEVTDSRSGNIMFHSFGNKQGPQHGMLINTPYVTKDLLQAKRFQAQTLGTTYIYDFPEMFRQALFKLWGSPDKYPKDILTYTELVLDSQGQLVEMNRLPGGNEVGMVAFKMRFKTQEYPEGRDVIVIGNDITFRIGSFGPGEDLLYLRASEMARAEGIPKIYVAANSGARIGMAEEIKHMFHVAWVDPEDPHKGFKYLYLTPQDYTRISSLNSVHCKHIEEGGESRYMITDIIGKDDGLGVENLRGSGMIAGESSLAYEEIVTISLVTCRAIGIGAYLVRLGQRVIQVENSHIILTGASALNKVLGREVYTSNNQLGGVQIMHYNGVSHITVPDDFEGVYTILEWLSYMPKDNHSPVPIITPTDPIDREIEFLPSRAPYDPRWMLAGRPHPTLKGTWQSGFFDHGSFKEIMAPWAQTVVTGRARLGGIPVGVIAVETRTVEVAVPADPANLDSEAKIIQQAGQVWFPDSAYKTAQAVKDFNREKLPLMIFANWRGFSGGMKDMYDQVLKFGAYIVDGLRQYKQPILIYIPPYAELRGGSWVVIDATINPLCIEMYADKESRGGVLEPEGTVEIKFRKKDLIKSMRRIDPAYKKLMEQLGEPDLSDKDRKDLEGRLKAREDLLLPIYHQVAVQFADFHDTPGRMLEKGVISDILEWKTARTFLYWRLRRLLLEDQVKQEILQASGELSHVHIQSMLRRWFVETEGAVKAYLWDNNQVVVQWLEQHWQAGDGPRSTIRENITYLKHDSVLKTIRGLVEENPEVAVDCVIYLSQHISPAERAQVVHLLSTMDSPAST

SMILES | pIC50 (ACC2) | pIC50 (ACC1)
CCOC(=O)c1sc2c(c1C)c(=O)n(CC(=O)O)c(=O)n2CC(OC(C)C)c1ccccc1 (stereo in doubt) [I-96, (S)-2-(6-(ethoxycarbonyl)-1-(2-isopropoxy-2-phenylethyl)-5-methyl-2,4-dioxo-1,2-dihydrothieno[2,3-d]pyrimidin-3(4H)-yl)acetic acid] | 4.70 to 5.30 | > 7.00
CCOC(=O)c1sc2c(c1C)c(=O)n(C(C)(C)C(=O)O)c(=O)n2C[C@H](OC(C)CC)c1ccccc1 (stereo in doubt) [I-131, 2-[1-[(2R)-2-[(2R)-butan-2-yloxy]-2-phenylethyl]-6-(ethoxycarbonyl)-5-methyl-2,4-dioxo-1H,2H,3H,4H-thieno[2,3-d]pyrimidin-3-yl]-2-methylpropanoic acid] | > 6.00 | > 6.00
CCOC(=O)c1sc2c(c1C)c(=O)n(CCO)c(=O)n2CCc1ccccc1 [I-1] | 4.70 to 5.30 | > 5.30
CCOC(=O)c1sc2c(c1C)c(=O)n(CC(=O)O)c(=O)n2CCc1ccccc1 [I-13] | > 5.30 | > 5.30
CCOC(=O)c1sc2c(c1C)c(=O)n(CC(N)=O)c(=O)n2CCc1ccccc1 [I-14] | > 5.30 | > 5.30
CCOC(=O)c1sc2c(c1C)c(=O)n(CCCO)c(=O)n2CCc1ccccc1 [I-19, ethyl 3-(3-hydroxypropyl)-5-methyl-2,4-dioxo-1-(2-phenylethyl)-1H,2H,3H,4H-thieno[2,3-d]pyrimidine-6-carboxylate] | 4.70 to 5.30 | > 5.30
CCOC(=O)c1sc2c(c1C)c(=O)n(CCO)c(=O)n2CCc1ccccc1Cl [I-20, ethyl 1-[2-(2-chlorophenyl)ethyl]-3-(2-hydroxyethyl)-5-methyl-2,4-dioxo-1H,2H,3H,4H-thieno[2,3-d]pyrimidine-6-carboxylate] | > 5.30 | 4.70 to 5.30
CCOC(=O)c1sc2c(c1C)c(=O)n(CC(=O)O)c(=O)n2CCc1ccccc1Cl [I-31, 2-[1-[2-(2-chlorophenyl)ethyl]-6-(ethoxycarbonyl)-5-methyl-2,4-dioxo-1H,2H,3H,4H-thieno[2,3-d]pyrimidin-3-yl]acetic acid] | > 5.30 | > 5.30
CCOC(=O)c1sc2c(c1C)c(=O)n(CC(=O)O)c(=O)n2CCc1ccccc1F [I-32, 2-[6-(ethoxycarbonyl)-1-[2-(2-fluorophenyl)ethyl]-5-methyl-2,4-dioxo-1H,2H,3H,4H-thieno[2,3-d]pyrimidin-3-yl]acetic acid] | > 5.30 | > 5.30
CCOC(=O)c1sc2c(c1C)c(=O)n(CC(=O)O)c(=O)n2CCc1c(F)cccc1F [I-33, 2-[1-[2-(2,6-difluorophenyl)ethyl]-6-(ethoxycarbonyl)-5-methyl-2,4-dioxo-1H,2H,3H,4H-thieno[2,3-d]pyrimidin-3-yl]acetic acid] | 4.70 to 5.30 | 4.70 to 5.30
CCOC(=O)c1sc2c(c1C)c(=O)n(Cc1nnn[nH]1)c(=O)n2CCc1ccccc1 [I-45, ethyl 5-methyl-2,4-dioxo-1-(2-phenylethyl)-3-(1H-1,2,3,4-tetrazol-5-ylmethyl)-1H,2H,3H,4H-thieno[2,3-d]pyrimidine-6-carboxylate] | > 5.30 | > 5.30
CCOC(=O)c1sc2c(c1C)c(=O)n(CCC(=O)O)c(=O)n2CCc1ccccc1 [I-46, 3-[6-(ethoxycarbonyl)-5-methyl-2,4-dioxo-1-(2-phenylethyl)-1H,2H,3H,4H-thieno[2,3-d]pyrimidin-3-yl]propanoic acid] | > 5.30 | > 5.30

Now from value to compound:

pIC50 (ACC2) | pIC50 (ACC1) | SMILES
> 6.00 | > 6.00 | Cc1c(-c2ncco2)sc2c1c(=O)n(C(C)(C)C(=O)O)c(=O)n2CC(Oc1ccccc1)c1ccccc1 (stereo in doubt) [I-143, 2-methyl-2-[5-methyl-6-(1,3-oxazol-2-yl)-2,4-dioxo-1-[(2S)-2-phenoxy-2-phenylethyl]-1H,2H,3H,4H-thieno[2,3-d]pyrimidin-3-yl]propanoic acid]
 | > 6.00 | COc1ccccc1[C@@H](O)Cn1c(=O)n(C(C)(C)C(=O)O)c(=O)c2c(C)c(-c3ncco3)sc21 [I-248, 2-[1-[(2R)-2-hydroxy-2-(2-methoxyphenyl)ethyl]-5-methyl-6-(1,3-oxazol-2-yl)-2,4-dioxo-1H,2H,3H,4H-thieno[2,3-d]pyrimidin-3-yl]-2-methylpropanoic acid]
 | > 6.00 | Cc1c(-c2ncco2)sc2c1c(=O)n(C(C)(C)C(N)=O)c(=O)n2C[C@H](OC1CCOCC1)c1ccccc1Cl [I-252, 2-[1-[(2R)-2-(2-chlorophenyl)-2-(oxan-4-yloxy)ethyl]-5-methyl-6-(1,3-oxazol-2-yl)-2,4-dioxo-1H,2H,3H,4H-thieno[2,3-d]pyrimidin-3-yl]-2-methylpropanamide]
 | > 6.00 | Cc1c(-c2ncco2)sc2c1c(=O)n(C(C)(C)C(=O)N1CCC1)c(=O)n2C[C@H](OC1CCOCC1)c1ccccc1Cl [I-253, 3-[1-(azetidin-1-yl)-2-methyl-1-oxopropan-2-yl]-1-[(2R)-2-(2-chlorophenyl)-2-(oxan-4-yloxy)ethyl]-5-methyl-6-(1,3-oxazol-2-yl)-1H,2H,3H,4H-thieno[2,3-d]pyrimidine-2,4-dione]
 | > 6.00 | Cc1c(-c2ncco2)sc2c1c(=O)n(C(C)(C)C(=O)O)c(=O)n2C[C@H](OC(C)C)c1ccccc1OC(F)(F)F [I-265, (R)-2-(1-(2-isopropoxy-2-(2-(trifluoromethoxy)phenyl)ethyl)-5-methyl-6-(oxazol-2-yl)-2,4-doxo-1,2-dihydrotheno[2,3-d]pyrimidin-3(4H)-yl)-2-methylpropanoic acid]
 | > 6.00 | Cc1c(-c2ncco2)sc2c1c(=O)n(C(C)(C)C(=O)O)c(=O)n2C[C@H](OC1CCOCC1)c1ccccc1C(F)(F)F [I-266, 2-methyl-2-[5-methyl-1-[(2R)-2-(oxan-4-yloxy)-2-[2-(trifluoromethyl)phenyl]ethyl]-6-(1,3-oxazol-2-yl)-2,4-dioxo-1H,2H,3H,4H-thieno[2,3-d]pyrimidin-3-yl]propanoic acid]
 | > 5.30 | COc1ccccc1[C@H](Cn1c(=O)n(C(C)(C)C(=O)O)c(=O)c2c(C)c(-c3ncco3)sc21)OCC1COC1 [I-269, (R)-2-(1-(2-(2-methoxyphenyl)-2-(oxetan-3-ylmethoxy)ethyl)-5-methyl-6-(oxazol-2-yl)-2,4-dioxo-1,2-dihydrothieno[2,3-d]pyrimidin-3(4H)-yl)-2-methylpropanoic acid]
 | > 5.30 | COc1cc(Br)ccc1[C@H](Cn1c(=O)n(C(C)(C)C(=O)O)c(=O)c2c(C)c(-c3ncco3)sc21)OC1CCOCC1 [I-270, 2-[1-[(2R)-2-(4-bromo-2-methoxyphenyl)-2-(oxan-4-yloxy)ethyl]-5-methyl-6-(1,3-oxazol-2-yl)-2,4-dioxo-1H,2H,3H,4H-thieno[2,3-d]pyrimidin-3-yl]-2-methylpropanoic acid]
 | > 7.00 | Cc1c(-c2ncco2)sc2c1c(=O)n(C(C)(C)C(=O)O)c(=O)n2C[C@H](OC1CCOCC1)c1ccccc1O [I-273, 2-[1-[(2R)-2-(2-hydroxyphenyl)-2-(oxan-4-yloxy)ethyl]-5-methyl-6-(1,3-oxazol-2-yl)-2,4-dioxo-1H,2H,3H,4H-thieno[2,3-d]pyrimidin-3-yl]-2-methylpropanoic acid]
 | > 7.00 | COc1ccccc1[C@H](Cn1c(=O)n(C(C)(C)C(=O)N2CCC2)c(=O)c2c(C)c(-c3ncco3)sc21)OCC1CCOCC1 [I-275, 3-[1-(azetidin-1-yl)-2-methyl-1-oxopropan-2-yl]-1-[(2R)-2-(2-methoxyphenyl)-2-(oxan-4-ylmethoxy)ethyl]-5-methy-6-(1,3-oxazol-2-yl)-1H,2H,3H,4H-thieno[2,3-d]pyrimidine-2,4-dione]
 | > 7.00 | COc1ccccc1[C@H](Cn1c(=O)n(C(C)(C)C(=O)O)c(=O)c2c(C)c(-c3ncco3)sc21)OC1CCC(=O)CC1 [I-276, (R)-2-(1-(2-(2-methoxyphenyl)-2-((4-oxocyclohexyl)oxy)ethyl)-5-methyl-6-(oxazol-2-yl)-2,4-dioxo-1,2-dihydrotheno[2,3-d]pyrimidin-3(4H)-yl)-2-methylpropanoic acid]
 | > 7.00 | Cc1c(-c2ncco2)sc2c1c(=O)n(C(C)(C)C(N)=O)c(=O)n2C[C@H](OC1CCOCC1)c1ccccc1O [I-283, 2-[1-[(2R)-2-(2-hydroxyphenyl)-2-(oxan-4-yloxy)ethyl]-5-methyl-6-(1,3-oxazol-2-yl)-2,4-dioxo-1H,2H,3H,4H-thieno[2,3-d]pyrimidin-3-yl]-2-methylpropanamide]
 | > 7.00 | Cc1c(-c2ncco2)sc2c1c(=O)n(C(C)(C)C(=O)N1CCC1)c(=O)n2C[C@H](OC1CCOCC1)c1ccccc1O [I-284, 3-[1-(azetidin-1-yl)-2-methyl-1-oxopropan-2-yl]-1-[(2R)-2-(2-hydroxyphenyl)-2-(oxan-4-yloxy)ethyl]-5-methyl-6-(1,3-oxazol-2-yl)-1H,2H,3H,4H-thieno[2,3-d]pyrimidine-2,4-dione]
